Tests used:
Format in all cases: in vivo
[1] = system: Albino male CD-1 mice; experiment: Phorbol ester (TPA) induced mouse ear edema; settings: 0.1% topical, 20 μL immediately after TPA; 5.5 hours
Description: The following experiments were carried out to test the effect of feverfew and substantially parthenolide-free feverfew in a phorbol ester PITA) induced edema assay. […] Albino male CD-1 mice, 7-9 weeks old, were used. A 0.005% (w/v) TPA solution was made in acetone. A 20 μL volume of this TPA solution was applied to the dorsal left ear of the mouse. Test compounds were applied immediately to the left ear (20 μL) after TPA in a 70% ethanol/propylene glycol vehicle. The right ear was not treated. The mice were sacrificed by CO2 inhalation (5.5 hours after TPA), the left and right ears were removed and a 7 mm biopsy was removed from each ear and weighed. The difference in biopsy weights between the right and left ear was calculated.

[2] = system: Albino male CD-1 mice; experiment: Oxazolone contact hypersensitivity, mouse ear; settings: 0.1% topical, 20 μL to ear 1 hour after challenge; ear weight at 24 hours
Description: The following experiments were carried out to test the effect of feverfew and substantially parthenolide-free feverfew in a contact […] assay. In this assay, the compositions of the invention were evaluated against hydrocortisone, a steroid known to inhibit contact hypersensitivity. Albino male CD-1 mice, 7-9 weeks old, were induce on the shaved abdomen with 50 μL of 3% oxazolone in acetone/corn oil Day 0). On Day 5, a 20 μL volume of 2% oxazolone in acetone was […] to the dorsal left ear of the mouse. […] The right ear was not treated. The mice were sacrificed by CO2 inhalation 24 hours after the oxazolone challenge, the left and right ears were removed and a 7 mm biopsy was taken from each ear and weighed. The difference in biopsy weights between the right and left ear was calculated. Antiinflammatory effects of compounds are evident as an inhibition of the increase in ear weight.

[3] = system: human volunteers; experiment: Prevention of trauma (stratum corneum stripping) induced erythema, human study; settings: applied twice daily for 2 days before stripping, total 2 hour period, compared to the vehicle
Description: Test product was applied to the ventral side of the forearm twice daily for 2 consecutive days. […] Chromameter measurements were made prior to stripping and at 0.5, 1, 1.5 and 2 hours posts tripping. The Colorimetric Erythema Index (CEI) was calculated for each time point. For the total 2 hour period, and compared to the vehicle, the following reductions in erythema were obtained;

[4] = system: human volunteers; experiment: Prevention of UVB induced erythema, human study; settings: 2 mg/cm^2 twice daily for 2 days before 2MED UVB
Description: Test product was applied to 5 different locations on the volar forearm twice daily for 2 consecutive days (2 mg/cm^2). The sites were exposed to 2MED UVB. Chromameter measurements were made prior to irradiation and at 18, 24, 42 and 48 hours post irradiation. The Colorimetric Erythema Index (CEI) was calculated for each time point. The following reductions in erythema were obtained: […]

[5] = system: human volunteers; experiment: Treatment of trauma (stratum corneum stripping) induced erythema, human study; settings: applied for 2 hours immediately after stripping, total 2 hour period, compared to the vehicle
Description: Test product was applied to the ventral side of the forearm for 2 hours, immediately after stripping. Chromameter measurements were made prior to stripping and at 0.5, 1, 1.5 and 2 hours post stripping. The Colorimetric Erythema Index (CEI) was calculated for each time point. For the total 2 hour period, and compared to the vehicle, the following reductions in erythema were obtained: […]

[6] = system: human volunteers; experiment: Treatment of UVB induced erythema, human study; settings: 2 mg/cm^2 immediately after 2MED UV and 5 and 8 hours later
Description: Ten healthy volunteers were irradiated with 2MED UV light on five distinct spots of the volar forearms. Test product was applied (2 mg/cm^2) on the irradiated sites immediately after irradiation, and 5 and 8 hours later. Erythema scores were measured before irradiation and 1, 4, 7 and 24 hours later. The following reductions in erythema were obtained: […]

[7] = system: Albino male CD-1 mice; experiment: Arachidonic acid induced ear edema; settings: 20 μl immediately after AA, 1 hour
Description: In this in vivo model, feverfew's ability to reduce arachidonic acid induced edema was compared to the known cycloxygenase/lipoxgenase inhibitor tepoxalin. Albino male CD-1 mice, 7-9 weeks old, were used. A 20% (w/v) arachidonic acid (AA) solution was made in acetone. A 20 μl volume of the AA was applied to the dorsal left ear of the mouse. Test compounds (20 μl) were applied immediately to the left ear after AA in a 70% ethanol/30% propylene glycol vehicle. The right ear was not treated. The mice were sacrificed by CO2 inhalation 1 hour after AA, the left and right ears were removed and a 7 mm biopsy was removed from each ear and weighed. The difference in biopsy weights between the right and left ear was calculated. Antiinflammatory effects of compounds are evident as an inhibition of the increase in ear weight.

Q: With `C[C@@H]1C[C@H]2[C@@H]3CCC4=CC(=O)C=C[C@]4(C)[C@@]3(F)[C@@H](O)C[C@]2(C)[C@@]1(O)C(=O)CO` [Dexamethasone] as the molecule, how does the “TPA induced ear edema, inhibition of the increase in ear weight, Study 2” value [1] read?
A: Its value is 97.2.

Q: How did the “Oxazolone contact hypersensitivity % Inhibition, Study 1” value [2] turn out when `C[C@]12CCC(=O)C=C1CC[C@@H]1[C@@H]2[C@@H](O)C[C@@]2(C)[C@H]1CC[C@]2(O)C(=O)CO` [Hydrocortisone] was run?
A: The value was 96.9%.

Q: What about the “Oxazolone contact hypersensitivity % Inhibition, Study 2” value [2] of the same molecule?
A: The value was 87.6%.

Q: What about the “Oxazolone contact hypersensitivity % Inhibition, Study 3” value [2] of the same molecule?
A: The value was 91.0%.

Q: And the “TPA induced ear edema, inhibition of the increase in ear weight, Study 1” value [1]?
A: The value was 96.9.

Q: What about the “Reduction of Erythema (%)” value ([3]; 0.1%) of the same molecule?
A: Its value is 10%.

Q: What about the “Reduction of Erythema (%)” value ([3]; 1%) of the same molecule?
A: Its value is 19%.

Q: What about the “Reduction of Erythema (%)” value ([4]; 0.1%) of the same molecule?
A: Its value is 2.5%.

Q: What about the “Reduction of Erythema (%)” value ([4]; 1%) of the same molecule?
A: The value was 5.7%.

Q: What about the “Reduction of Erythema (%)” value ([5]; 0.1%) of the same molecule?
A: The value was −3%.

Q: What about the “Reduction of Erythema (%)” value ([5]; 1%) of the same molecule?
A: The value was 14%.

Q: What about the “Reduction of Erythema (%)” value ([6]; 0.1%) of the same molecule?
A: The value was 3.2%.

Q: What about the “Reduction of Erythema (%)” value ([6]; 1%) of the same molecule?
A: Its value is 17.7%.

Q: With `COc1ccc(-n2nc(CCC(=O)N(C)O)cc2-c2ccc(Cl)cc2)cc1` [Tepoxalin] as the molecule, how does the “Arachidonic acid induced ear edema % Inhibition” value ([7]; 0.1% topical) read?
A: Its value is 10.84%.

Q: What about the “Arachidonic acid induced ear edema % Inhibition” value ([7]; 1.0% topical) of the same molecule?
A: The value was 42.38%.

Q: And the “Arachidonic acid induced ear edema % Inhibition” value ([7]; 2.0% topical)?
A: The value was 61.06%.

From patent US7387807B2, “Topical composition comprising feverfew” (Johnson & Johnson Consumer France, SAS, Roc Division, priority 1999, dated 2008)
